Experiments:
bound NADH fraction = experiment: NADH fluorescence lifetime imaging (FLIM); assay type: cell-based; conditions: mimicked amino acid and glucose starvation
Text: Cells adapt to nutrient limitation by increasing oxidative phosphorylation. The relative rate of glycolysis and oxidative phosphorylation can be monitored by measuring the fluorescence lifetime of the reduced form of nicotinamide adenine dinucleotide (NADH). A higher ratio of protein-bound to free NADH (increased lifetime) correlates with increased oxidative phosphorylation in multiple cell types both in vitro and in vivo. Oligomycin and rotenone/antimycin A are molecules known in the field to induce glycolysis, whereas 2-deoxy-glucose (2DG) is an inhibitor of glycolysis and subsequently increases oxidative phosphorylation. Starvation of cells by removing access to glucose and amino acids is also known to increase oxidative phosphorylation. […]
NADH Fluorescence Lifetime Imaging Microscopy (FLIM). […] The excitation wavelength was 740 nm and a dichroic filter (690 nm) was used to separate the fluorescence signal from the laser light. […] The fluorescence was detected by a hybrid detector (HPM-100 Hamamatsu). […] The FLIM system was calibrated during each imaging session by measuring the fluorescence decay of fluorescein with a single exponential of 4.04 nsec. […] Data was processed by the SimFCS software developed at the Laboratory of Fluorescence Dynamics at UCI. […]

[1] = Blood chemistry of pDKO mice; assay type: in vivo; conditions: for Alkaline Phosphatase: Means ± SEM, n = 4, in U/L (unit assumed); for Albumin / Globulin / Total Protein: in g/dL (unit assumed); for Blood Urea Nitrogen / Ca^2+ / Cholesterol / P / Total Bilirubin: in mg/dL (unit assumed); for HCO^3−: in mmol/L (unit assumed); for Creatine: unit assumed
Description: (§1) In vivo studies. Experiments conducted in mice were performed in accordance with the Institutional Animal Care and Use Committee of University of California, Irvine following a power analysis conducted in consultation with the Biostatistics Shared Resource of Chao Family Comprehensive Cancer Center at UCI. Xenografts were produced by injecting 5 million cells subcutaneously in the flank of 10-16 week-old male or female NSG mice. Prostate isografts were produced in the same manner but in male 6-8 wk old C57BL/6 mice. Once tumors reached 100 mm^3, SH-BC-893 was administered by intraperitoneal (i.p.) injection or oral gavage as indicated. Tumor volume was calculated using the formula, volume (mm^3)=length [mm]×(width [mm])^2×0.52; BLI was measured using an IVIS imaging system (Xenogen). To generate pDKO mice on the C57BL6 background, Pten^flox mice (stock No. 0045597) and p53^flox mice (stock No. 008462) were obtained from the Jackson Laboratory and PB-Cre4 mice (strain #01XF5) were obtained from the NCI-Frederick Mouse Repository. Age-matched cohorts of pDKO males were generated by in vitro fertilization executed with the assistance of the Transgenic Mouse Facility at UC Irvine. Treatment was begun at 6-7 wks of age. […] Tumor samples were processed and imaged by the Pathology Research Services Core Facility at UC Irvine. Blood chemistry was analyzed by IDEXX BioResearch and complete blood counts were performed using a Hemavet hematology system.

[2] = Blood cell count of pDKO mice; assay type: in vivo; conditions: for % lymphocyte / % neutrophil / Red Blood Cells / White Blood Cells / Hematocrit: pDKO mice, at sacrifice; for White Blood Cells: Means ± SEM, n = 4; for Hematocrit: in % (unit assumed)
Description: as §1

[3] = 60 mg/kg, at sacrifice, in U/L (unit assumed)
[4] = 120 mg/kg, at sacrifice, in U/L (unit assumed)

## CCCCCCCCc1ccc([C@H]2CCN[C@@H]2CO)cc1.Cl [Compound 5, (2S,3R)-2-(hydroxymethyl)-3-(4-octylphenyl)Pyrrolidinium chloride]
Bound NADH fraction
  bound NADH fraction: increasing
[1]; 60 mg/kg, at sacrifice
  Glucose: 282 ± 24^
  Alkaline Phosphatase: 77 ± 7.8
  Albumin: 3 ± 0.2
  Globulin: 2 ± 0.18
  Total Protein: 5 ± 0.4
  Blood Urea Nitrogen: 19 ± 1.1
  Ca^2+: 10 ± 0.7
  Cholesterol: 134 ± 15.8
  P: 11 ± 1.0
  Total Bilirubin: 0.1 ± 0
  HCO^3−: 20 ± 3.2
  Creatine: < 0.2 mg/dL
[1]; [3]
  Creatine Phosphokinase: 5,340 ± 2366
  Serum Glutamic Oxaloacetic Transaminase (Asp aminotransferase): 640 ± 136
  Serum Glutamic-Pyruvic Transaminase (Ala aminotransferase): 78 ± 25
[1]; 120 mg/kg, at sacrifice
  Glucose: 307 ± 28^
  Alkaline Phosphatase: 83 ± 6.2
  Albumin: 3 ± 0.1
  Globulin: 2 ± 0.03
  Total Protein: 6 ± 0.2
  Blood Urea Nitrogen: 23 ± 1.5
  Ca^2+: 10 ± 0.1
  Cholesterol: 107 ± 7.5
  P: 13 ± 0.1
  Total Bilirubin: 0.2 ± 0.03
  HCO^3−: 17 ± 2.8
  Creatine: < 0.2 mg/dL
[1]; [4]
  Serum Glutamic Oxaloacetic Transaminase (Asp aminotransferase): 907 ± 171
  Serum Glutamic-Pyruvic Transaminase (Ala aminotransferase): 91 ± 17.2
[1]; anti-neoplastic dose
  toxicity to the liver or kidneys by blood chemistry at sacrifice: not toxic to the liver or kidneys
[2]; mice treated with 120 mg/kg for 11 weeks
  complete blood counts (in words): normal complete blood counts
[2]; 60 mg/kg
  % lymphocyte: 77 ± 4%
  % neutrophil: 14 ± 3%
  Red Blood Cells: 8 ± 1 M/μL
  White Blood Cells: 5 ± 1 10^3 cells/μL
  Hematocrit: 32 ± 5
[2]; 120 mg/kg
  % lymphocyte: 73 ± 5%
  % neutrophil: 19 ± 5%
  Red Blood Cells: 9 ± 1 M/μL
  White Blood Cells: 8 ± 1 10^3 cells/μL
  Hematocrit: 41 ± 3
